Patent US20140296153A1, “Oligodendrocyte Differentiation” (priority 2011, published 2014)

How the values were obtained:
SVZ cells [1] = assay: SVZ neurosphere forming assay (primary neurospheres); format: cell-based, mouse
Experimental: Neurosphere forming and self-renewal assays were performed on SVZ cells seeded at clonal density, 2500 cells per well in 24-well cell culture plates in SFM containing 5 ng/ml EGF and 2.5 ng/ml FGF-2 and supplemented or not (control) with 1 μM Hp or 50 ng.ml^−1 hepatocyte growth factor (carrier free recombinant human HGF, R&D Systems, Lille, France). After 6 days, the numbers of primary neurospheres were determined. For self-renewal assay, neurospheres were collected, dissociated as single cells and seeded in SFM containing 5 ng/ml EGF and 2.5 ng/ml FGF-2 in 24 well plates. After 6 days, the number of secondary neurospheres was counted.
Fluorescence images were recorded using an LSM 510 Meta confocal microscope or an Axioskop 2 Plus fluorescence microscope (both from Carl Zeiss). In all experiments, measurements were performed in the border of SVZ neurospheres where migrating cells form a cell monolayer. For the SVZ neurosphere forming and self-renewal assays the experiments were replicated in five independent culture preparations and each experimental condition was assayed in four different coverslips. For the remaining experiments, each condition was assayed in three different coverslips, and except where otherwise specified, the experiments were replicated in three independent culture preparations. Percentages of TUNEL or BrdU immunoreactive cells in SVZ cell cultures were calculated from cell counts in five independent microscopic fields in each coverslip with a x40 objective (approximately 200 cells per field). Software used was Axiovision, release 4.6 (Carl Zeiss). For SCCl experiments, the percentage of oligodendrocytic-like responding cells (with a Thromb/Hist ratio above 1.3) was calculated on the basis of one microscopic field per coverslip, containing approximately 100 cells (magnification, ×40).
Neural stem-like cells are characterized in vitro by both their capacity to give rise to neurospheres and to self-renew when cultured in the presence of mitogens.

SVZ cells [2] = assay: Single cell calcium imaging (SCCI) of oligodendrocytic differentiation; format: cell-based, mouse; conditions: 7 days
Experimental: To investigate the influence of Hp on oligodendrocytic differentiation, SVZ neurospheres were allowed to develop for 7 days Hp (100 nm, 1 μM), in serum free medium devoid of growth factor at 37° C.
To determine the functional differentiation pattern of SVZ cells, we analyzed the variations of intracellular calcium-free levels ([Ca^2+]i) in single cells following stimulation with 50 mM KCl, 100 μM histamine (Sigma-Aldrich, St. Louis, Mo. USA) and 0.1 U/ml thrombin (Sigma-Aldrich) stimulation. KCl depolarization causes an increase in [Ca^2+]i in neurons, whereas stimulation with histamine leads to an increase in [Ca^2+]i in stem/progenitor cells, while thrombin leads to an increase in [Ca^2+]i in oligodendrocytes. SVZ cultures were loaded for 40 minutes with 5 μM Fura—2/AM (Molecular Probes, Carlsbad, Calif., USA), 0.1% fatty acid-free BSA, and 0.02% pluronic acid F-127 (Molecular Probes) in Krebs solution (132 mM NaCl, 4 mM KCl, 1.4 mM MgCl2, 1 mM CaCl2, 6 mM glucose, 10 mM HEPES, pH 7.4), in an incubator with 5% CO2 and 95% atmospheric air at 37° C. After a 10-minute postloading period at room temperature (RT) in the same medium without Fura-2/AM and pluronic acid, to obtain a complete hydrolysis of the probe, the glass coverslip was mounted on an RC-20 chamber in a PH3 platform (Warner Instruments, Hamden, Conn., USA) on the stage of an inverted fluorescence microscope (Axiovert 200, Carl Zeiss). […] The variations of [Ca^2+]i were evaluated by quantifying the ratio of the fluorescence emitted at 510 nm following alternate excitation (750 msec) at 340 and 380 nm, using a Lambda DG4 apparatus (Sutter Instrument, Novato, Calif., USA) and a 510 nm band-pass filter (Carl Zeiss) before fluorescence acquisition with a x40 objective and a CoolSNAP digital camera (Roper Scientific, Trenton, N.J., USA). […] KCl, histamine, and thrombin peaks given by the normalized ratios of fluorescence at 340/380 nm, at the proper time periods, were used to calculate the ratios of the responses to histamine/KCl (Hist/KCl-neuronal-like profile) and to thrombin/histamine (Throm/Hist-oligodendrocytic-like profile).
Fluorescence images were recorded using an LSM 510 Meta confocal microscope or an Axioskop 2 Plus fluorescence microscope (both from Carl Zeiss). […] Percentages of TUNEL or BrdU immunoreactive cells in SVZ cell cultures were calculated from cell counts in five independent microscopic fields in each coverslip with a x40 objective (approximately 200 cells per field). […] For SCCl experiments, the percentage of oligodendrocytic-like responding cells (with a Thromb/Hist ratio above 1.3) was calculated on the basis of one microscopic field per coverslip, containing approximately 100 cells (magnification, ×40). […]

Q: How did the “decrease of the number of primary neurospheres” value (SVZ cells [1]; 1 μm Hp during 6 days) turn out when `CC(C)C[C@H](NC(=O)[C@H](Cc1ccccc1)NC(=O)[C@H](CCCCN)NC(=O)[C@H](Cc1ccccc1)NC(=O)[C@H](CC(N)=O)NC(=O)[C@@H](NC(=O)[C@@H]1CCCN1)C(C)C)C(=O)N[C@@H](CO)C(=O)N[C@@H](Cc1cnc[nH]1)C(=O)O` [Hp, PVNFKFLSH] was run?
A: The value was 15%.

Q: And the “number of primary neurospheres (control 100%)” value (SVZ cells [1]; Hp 1 μM, 6 days, SFM with 5 ng/ml EGF and 2.5 ng/ml FGF-2)?
A: The value was 85.13±3.86%.

Q: What about the “cells responding with a Throm/Hist ratio above 1.3 (oligodendrocyte-like responding cells)” value (SVZ cells [2]; Hp 100 nM, 9 coverslips) of the same molecule?
A: The value was 15.84±3.85%.

Q: And the “cells responding with a Throm/Hist ratio above 1.3 (oligodendrocyte-like responding cells)” value (SVZ cells [2]; Hp 1 μM, 12 coverslips)?
A: The value was 14.51±4.09%.

Q: And the “cells responding with a Throm/Hist ratio above 1.3 (oligodendrocyte-like responding cells)” value (SVZ cells [2]; Hp treatment (100 nM or 1 μM), rounded)?
A: Its value is “around 15%”.
